In ChEMBL document CHEMBL3244383, “Antiinflammatory activity of 17-esters of 6alpha,9alpha-difluoro-21-deoxyprednisolone” (1977):

Assays:
Format in all cases: functional
[1] = system: Homo sapiens; experiment: Vasoconstrictive activity in human at 0.02 to 0.18 ug applied topically by paper-patch test relative to betamethasone 17-valerate
[2] = species: Rattus norvegicus; experiment: Antiexudative activity in rat assessed as inhibition of exudate formation in granuloma pouch at 0.002 umol compound injected into pouch on day 5 measured on day 11 relative to control
[3] = species: Rattus norvegicus; experiment: Antiexudative activity in rat assessed as inhibition of exudate formation in granuloma pouch at 0.02 umol compound injected into pouch on day 5 measured on day 11 relative to control
[4] = system: Rattus norvegicus; experiment: Antiexudative activity in rat assessed as inhibition of exudate formation in granuloma pouch at 0.002 umol, sc administered from day 2 to day 10 measured on day 11 relative to control
[5] = system: Rattus norvegicus; experiment: Antiexudative activity in rat assessed as inhibition of exudate formation in granuloma pouch at 0.02 umol, sc administered from day 2 to day 10 measured on day 11 relative to control

Row | Compound | fold change (FC) [1] | inhibition (INH) [2] [%] | inhibition (INH) [3] [%] | inhibition (INH) [4] [%] | inhibition (INH) [5] [%]
1 | CC(=O)O[C@]1(C(C)=O)CC[C@H]2[C@@H]3C[C@H](F)C4=CC(=O)C=C[C@]4(C)[C@@]3(F)[C@@H](O)C[C@@]21C | 1.5 | 18 | 13 |  | 
2 | CCC(=O)O[C@]1(C(C)=O)CC[C@H]2[C@@H]3C[C@H](F)C4=CC(=O)C=C[C@]4(C)[C@@]3(F)[C@@H](O)C[C@@]21C | 2.5 | 47 | 67 |  | 
3 | CCCC(=O)O[C@]1(C(C)=O)CC[C@H]2[C@@H]3C[C@H](F)C4=CC(=O)C=C[C@]4(C)[C@@]3(F)[C@@H](O)C[C@@]21C | 2.5 | 60 | 81 |  | 
4 | CC(=O)[C@@]1(OC(=O)c2ccccc2)CC[C@H]2[C@@H]3C[C@H](F)C4=CC(=O)C=C[C@]4(C)[C@@]3(F)[C@@H](O)C[C@@]21C | <=1 | 71 | 90 | <5 | 35
5 | CCC(=O)O[C@]1(C(=O)CO)CC[C@H]2[C@@H]3C[C@H](F)C4=CC(=O)C=C[C@]4(C)[C@@]3(F)[C@@H](O)C[C@@]21C |  | <5 | 41 |  | 
6 | C[C@]12C=CC(=O)C=C1[C@@H](F)C[C@H]1[C@@H]3CC[C@](OC(=O)c4ccccc4)(C(=O)CO)[C@@]3(C)C[C@H](O)[C@@]12F |  | 46 | 70 | 20 | 62
